Read-outs that look alike come from different tables or passages of the source.
Key:
MOLM-13 [1] = test: cells; set-up: species or system AML cell lines (8); Secondary HTS, 10-point dose-response in triplicate, Cell Titer Glo viability, four-parameter fit EC50; details: Homo sapiens, MOLM-13, 72 h, read-out: MOLM-13
CMS = test: Secondary dose-response HTS, Cell Titer Glo; type: cell-based, human; details: for EC50: read-out: average effective concentration, CMS
CMK = test: Secondary dose-response HTS, Cell Titer Glo; type: cell-based, human; details: CMK; for EC50: read-out: average effective concentration, CMK
MV4-11 [2] = test: cells; set-up: species or system AML cell lines (8); Secondary HTS, 10-point dose-response in triplicate, Cell Titer Glo viability, four-parameter fit EC50; details: Homo sapiens, MV4-11, 72 h, read-out: MV4-11
CHRF288-11 [3] = test: Secondary dose-response HTS, Cell Titer Glo; type: cell-based, human; details: secondary high-throughput screen, CHRF288-11; for EC50: read-out: average effective concentration, CHRF288-11
M07e = test: Secondary dose-response HTS, Cell Titer Glo; type: cell-based, human; details: secondary high-throughput screen; for EC50: read-out: average effective concentration, M07e
U937 [4] = test: Secondary dose-response HTS, Cell Titer Glo; type: cell-based, human; details: secondary high-throughput screen, U937; for EC50: read-out: average effective concentration, U937
ML2 = test: Secondary dose-response HTS, Cell Titer Glo; type: cell-based, human; details: secondary high-throughput screen, ML-2; for EC50: read-out: average effective concentration, ML-2
U937 [5] = test: cells; set-up: species or system AML cell lines (8); Secondary HTS, 10-point dose-response in triplicate, Cell Titer Glo viability, four-parameter fit EC50; details: Homo sapiens, U-937, 72 h, read-out: U937
MOLM-13 [6] = test: Secondary dose-response HTS, Cell Titer Glo; type: cell-based, human; details: secondary high-throughput screen, MOLM-13; for EC50: read-out: average effective concentration, MOLM-13
MV4-11 [7] = test: Secondary dose-response HTS, Cell Titer Glo; type: cell-based, human; details: secondary high-throughput screen, MV4-11; for EC50: read-out: average effective concentration, MV4-11
CHRF288-11 [8] = test: cells; set-up: species or system AML cell lines (8); Secondary HTS, 10-point dose-response in triplicate, Cell Titer Glo viability, four-parameter fit EC50; details: 72 h, read-out: CHRF288-11
[9] = Homo sapiens, HTS, secondary high-throughput screen, CMS
[10] = Homo sapiens, secondary high-throughput screen
[11] = secondary high-throughput screen, CMS
[12] = secondary high-throughput screen

EC50 (U937 [4]; Homo sapiens, U-937)	EC50 (MOLM-13 [6]; Homo sapiens)	Compound	EC50 (CHRF288-11 [3]; Homo sapiens, HTS)	EC50 (M07e; Homo sapiens, M-07e, M07e)	EC50 (ML2; Homo sapiens)	EC50 (CMS; [9])	EC50 (CMK; [10])	average effective concentration, CMS (CMS; [11])	average effective concentration, CMK (CMK; [12])	average effective concentration, CHRF288-11 (CHRF288-11 [3])	average effective concentration, MOLM-13 (MOLM-13 [6])	average effective concentration, M07e (M07e; M07e)	average effective concentration, U937 (U937 [4])	average effective concentration, ML-2 (ML2)	average effective concentration, MV4-11 (MV4-11 [7])	also measured
220 nM		CC(C)[C@H](C(=O)Nc1ccc(C(=O)NO)cc1)c1ccccc1 [(S)-HDAC-42]	260 nM	160 nM	330 nM											EC50 (MOLM-13 [1]): > 10000 nM; EC50 (CMS; Homo sapiens, HTS): 220 nM; EC50 (CMK; Homo sapiens): 38 nM; EC50 (MV4-11 [2]): > 10000 nM
30 nM		CN(C)Cc1c(C(=O)NCCOc2ccc(C(=O)NO)cc2)oc2ccccc12 [ABEXINOSTAT]	37 nM	26 nM	93 nM	34 nM	12 nM									EC50 (MOLM-13 [1]): > 10000 nM; EC50 (MV4-11 [2]): > 10000 nM
	23 nM	O=c1[nH]c(=O)n([C@H]2C[C@H](O)[C@@H](CO)O2)cc1F [FLOXURIDINE]	67 nM	8200 nM	21 nM	7900 nM	980 nM									EC50 (U937 [5]): > 10000 nM; EC50 (MV4-11 [7]; Homo sapiens): 130 nM
3900 nM	2900 nM	CCN(CC)CCCC(C)Nc1c2ccc(Cl)cc2nc2ccc(OC)cc12 (stereo not shown) [QUINACRINE]		7700 nM	> 10000 nM	5500 nM	7700 nM									EC50 (CHRF288-11 [8]): > 10000 nM; EC50 (MV4-11 [7]; Homo sapiens): 3800 nM
> 10000 nM	4900 nM	Nc1nc2nc[nH]c2c(=S)[nH]1 [THIOGUANINE]	3500 nM	> 10000 nM	6300 nM	> 10000 nM	3800 nM									EC50 (MV4-11 [7]; Homo sapiens): 3000 nM
690 nM	120 nM	CC[C@@]1(O)C(=O)OCc2c1cc1n(c2=O)Cc2cc3c(CN(C)C)c(O)ccc3nc2-1 [TOPOTECAN]	500 nM	1700 nM	250 nM	7200 nM	470 nM									EC50 (MV4-11 [7]; Homo sapiens): 170 nM
> 10000 nM	170 nM	COc1cc(NCc2ccc3nc(N)nc(N)c3c2C)cc(OC)c1OC [TRIMETREXATE]	7600 nM	10000 nM	2900 nM	1700 nM	4200 nM									EC50 (MV4-11 [7]; Homo sapiens): 1800 nM
		COc1cc2c(NC3CCN(C)CC3)nc(N3CCCN(C)CC3)nc2cc1OCCCN(C)C [UNC0224]						Inactive	Inactive	Inactive	Inactive	Inactive	Inactive	Inactive	Inactive	
		COc1cc2c(NC3CCN(C)CC3)nc(N3CCCN(C)CC3)nc2cc1OCCOCCN(C)C [UNC0321]						Inactive	Inactive	Inactive	Inactive	Inactive	Inactive	Inactive	Inactive	
35 nM	43 nM	CC[C@]1(O)C[C@H]2CN(CCc3c([nH]c4ccccc34)[C@@](C(=O)OC)(c3cc4c(cc3OC)N(C=O)[C@H]3[C@@](O)(C(=O)OC)[C@H](OC(C)=O)[C@]5(CC)C=CCN6CC[C@]43[C@@H]65)C2)C1 [VINCRISTINE]	390 nM	1 nM	8 nM	230 nM	> 10000 nM									EC50 (MV4-11 [7]; Homo sapiens): 20 nM
		CCn1c(=O)c(-c2cc[nH]n2)cc2c(C)nc(N)nc21 [Voxtalisib]						Inactive	Inactive	Inactive	Inactive	Inactive	Inactive	Inactive	Inactive	
		(-)-NUTLIN-3						Inactive	Inactive	Inactive			Inactive		Inactive	EC50 (MOLM-13 [6]): 940 nM; EC50 (M07e; M07e): 160 nM; EC50 (ML2): 4900 nM
		ANACARDIC ACID						Inactive	Inactive	Inactive	Inactive	Inactive	Inactive	Inactive	Inactive	
		AZ-20							Inactive		Inactive				Inactive	EC50 (CMS; [11]): 600 nM; EC50 (CHRF288-11 [3]): 2500 nM; EC50 (M07e; M07e): 200 nM; EC50 (U937 [4]): 4700 nM; EC50 (ML2): 30 nM
		EB-47						Inactive	Inactive	Inactive	Inactive	Inactive	Inactive	Inactive	Inactive	
		IC-87114						Inactive	Inactive	Inactive	Inactive	Inactive	Inactive	Inactive	Inactive	
		LB 42708							Inactive	Inactive		Inactive	Inactive			EC50 (CMS; [11]): 3400 nM; EC50 (MOLM-13 [6]): 2500 nM; EC50 (ML2): 2300 nM; EC50 (MV4-11 [7]): 5000 nM
		MST312							Inactive						Inactive	EC50 (CMS; [11]): 2900 nM; EC50 (CHRF288-11 [3]): 2000 nM; EC50 (MOLM-13 [6]): 1500 nM; EC50 (M07e; M07e): 5200 nM; EC50 (U937 [4]): 2800 nM; EC50 (ML2): 3700 nM
		PU-H71										Inactive	Inactive			EC50 (CMS; [11]): 180 nM; EC50 (CMK; [12]): 24 nM; EC50 (CHRF288-11 [3]): 170 nM; EC50 (MOLM-13 [6]): 19 nM; EC50 (ML2): 82 nM; EC50 (MV4-11 [7]): 23 nM
		SCR7						Inactive	Inactive	Inactive	Inactive	Inactive	Inactive	Inactive	Inactive	
		SN-38						Inactive								EC50 (CMK; [12]): 23 nM; EC50 (CHRF288-11 [3]): 9.49 nM; EC50 (MOLM-13 [6]): 5.6 nM; EC50 (M07e; M07e): 44 nM; EC50 (U937 [4]): 37 nM; EC50 (ML2): 2.51 nM; EC50 (MV4-11 [7]): 240 nM

Compound	EC50 (U937 [4]; Homo sapiens, U-937)	EC50 (MOLM-13 [6]; Homo sapiens)	EC50 (CHRF288-11 [3]; Homo sapiens, HTS)	EC50 (M07e; Homo sapiens, M-07e, M07e)	EC50 (ML2; Homo sapiens)	EC50 (CMS; [9])	EC50 (CMK; [10])	average effective concentration, CMS (CMS; [11])	average effective concentration, CMK (CMK; [12])	average effective concentration, CHRF288-11 (CHRF288-11 [3])	average effective concentration, MOLM-13 (MOLM-13 [6])	average effective concentration, M07e (M07e; M07e)	average effective concentration, U937 (U937 [4])	average effective concentration, ML-2 (ML2)	average effective concentration, MV4-11 (MV4-11 [7])	also measured
COc1cc2c(NC3CCN(C(C)C)CC3)nc(C3CCCCC3)nc2cc1OCCCN1CCCC1 [UNC0638 HYDRATE]	4500 nM	> 10000 nM	> 10000 nM		> 10000 nM	6000 nM			Inactive						Inactive	EC50 (M07e; Homo sapiens, M-07e, […]): 5000 nM
CN1CCc2c(c3ccccc3n2Cc2ccc(C(=O)NO)cc2)C1 [[…]]		> 10000 nM						Inactive	Inactive	Inactive			Inactive	Inactive	Inactive	average effective concentration, M07e (M07e; […]): Inactive
